Assay [1] concerns phosphorylation of AKT at serine 473 in mouse primary B cells. As to the kind of experiment: p-AKT (S473) western blot in αIgM + IL-4 stimulated mouse B cells. Format: cell-based. Here is the method:
(§1) IPI-3063 is a p110δ selective compound with an IC50 = 0.1 nM in p110δ-specific cell-based assays and cellular IC50 values for the other class I PI3K isoforms are at least 1,000-fold higher (Table 2) ([11]). […] To test the effects of p110γ inhibition, we used AS-252424 compound with a biochemical IC50 = 30 nM for p110γ ([17]). We assessed the effects of both IPI-3063 and IPI-443 on PI3K activity in mouse primary B cells stimulated with αIgM + IL-4, by evaluating phosphorylation of AKT at the serine 473 residue (Figures 1A,C) as well as the phosphorylation of ERK1/2 on Thr202/Tyr204 residues (Figures 1B,C). Cells were treated with a pan-PI3K inhibitor GDC-0941 or with various concentrations of IPI-3063 or IPI-443, or DMSO (0.1%) as the diluent control. Separate cultures were treated with the p110γ inhibitor AS-252424 or its diluent control (0.1% EtOH). MK-2206, an AKT inhibitor, which also reduces AKT S473 phosphorylation, was also used as a control to show ERK1/2 phosphorylation is independent of AKT activity. […]
(§2) Analysis was performed on western blots using ImageJ to measure mean fluorescence intensities of each band. Phospho-AKT S473 and phospho-ERK1/2 signal was normalized with actin measurements and fold change was calculated using the stimulated/no drug control.

In assay [2] the test system is phosphorylation of ERK1/2 on Thr202/Tyr204 in mouse primary B cells. As to the kind of experiment: p-ERK1/2 western blot in αIgM + IL-4 stimulated mouse B cells. Type of assay: cell-based. Here is the method:
as §1, §2
(A western blot detects proteins with antibodies after separation by electrophoresis.)

The subject of the next assay is mouse B cells. As to the kind of experiment: mouse B cell survival (B220+7AAD- viability, 48 h). Type of assay: cell-based. The protocol: To assess survival, purified mouse B cells were incubated for 48 h in either B-cell activating factor (BAFF) or interleukin-4 (IL-4) with various concentrations of IPI-3063 and IPI-443. […] The selective PI3K inhibitor IPI-3063 was very potent, achieving a significant decrease in B cell survival when present at 10 nM.
Total splenocytes were pretreated with inhibitors as indicated, then cultured with 10 ng/mL IL-4 (A) or 60 ng/mL of BAFF (B) for 48 h. Concentrations used were 1 nM, 10 nM, 100 nM, 1 µM for IPI-443 and 1, 10, 30, 100 nM for IPI-3063. AS252424 concentrations were 100 nM, 300 nM, and 1 µM, and GDC-0941 was at 500 nM. % viability was calculated by measuring % of B220^+7AAD^− cells. Samples were collected by time. (*P < 0.05, **P < 0.001, ***P < 0.0001 one-way ANOVA with Newman–Keuls multiple comparison test).

The target of the next assay is T1, p110γ (Homo sapiens, UniProt P48736).
T1 construct: purchased Millipore 14-558-K
As to the kind of experiment: PI3K enzymatic assay (ADP-Glo) with purified enzymes. The conditions noted are these: purified enzyme, mean ± spread (n), read-out: Biochemical IC50. The protocol:
(§3) Human recombinant PI3K-α (cat. no. 14-602-K), -β (cat. no. 14-603-K), -δ (cat. no. 14-604-K), and -γ (cat. no. 14-558-K) were purchased from Millipore. Phosphatidylinositol 4,5 bis phosphate (diC8-PtdIns(4,5)P2) was purchased from Avanti Polar Lipids, Inc. PI3K-α, β, and δ are heterodimers consisting of full length p110α, p110β, or p110δ catalytic subunit and the p85α regulatory subunit. PI3K-γ is a monomer of the p110γ catalytic subunit. Samples of kinase (10 nM—α, β, and δ; 20 nM—γ) were incubated with inhibitor for 30 min at room temperature in reaction buffer (15 mM HEPES pH 7.4, 20 mM NaCl, 1 mM EGTA, 0.02% Tween 20, 10 mM MgCl2, 0.2 mg/mL bovine-γ-globulins) followed by addition of ATP/diC8-PtdIns(4,5)P2 mixture to give final concentrations of 3 mM ATP and 500 µM diC8-PtdIns(4,5)P2. Reactions were incubated at room temperature for 2 h, with PI3K activity assessed via the Promega ADP-Glo Max assay kit (cat. no. V7002) according to the manufacturer’s instruction. Plates were read on Envision plate reader in luminescence mode.
(In general: In ADP-Glo the light output rises with the ADP produced.)

The target of assay [3] is T2, p110δ (Homo sapiens, UniProt O00329).
T2 construct: heterodimers consisting of full length p110α, p110β, or p110δ catalytic subunit and the p85α regulatory subunit; purchased Millipore 14-604-K
The description is as above. The following applies: purified enzyme, mean ± spread (n), read-out: Biochemical IC50. The protocol: as §3

A further assay relates to p110α. As to the kind of experiment: isoform-specific cell-based assay, pAKT S473 ELISA. The following applies: read-out: Cellular IC50. Here is the method:
(§4) Phospho-Akt1 (S473) sandwich ELISA antibody kit (Cell Signaling Technology, cat. no. 7143) was utilized to analyze pAKT signal in cells as described previously by Winkler et al. ([11]) (for data see Table 2). Briefly, SKOV3 and 786.0 cells were seeded into 96-well cell culture-graded plates at a density of […] per 200 µl culture media per well. Raji and Raw264.7 were seeded at the same density in FBS-free media. After overnight incubation at 5% CO2 and 37°C, the cells were treated with inhibitor for 30 min. Raji cells were stimulated with 10 µg/mL anti-human IgM (Jackson ImmunoResearch) for 30 min and Raw264.7 cells with 25 nM C5a (RnD Systems) for 3 min in the presence of inhibitor. SKOV3 and 786.0 cells were not stimulated. Medium was then aspirated and 50 µL/well of ice-cold lysis buffer was added. pAKT level was determined according to the manufacturer’s instruction.
A general note: ELISA stands for enzyme-linked immunosorbent assay.

Assay [4] deals with p110δ. As to the kind of experiment: isoform-specific cell-based assay, pAKT S473 ELISA. Here is the method:
as §4

This note sets out measurements from publication PMC5491903, “The Selective Phosphoinoside-3-Kinase p110δ Inhibitor IPI-3063 Potently Suppresses B Cell Survival, Proliferation, and Differentiation” (Frontiers in Immunology, 2017).

T2 sequence (O00329 whole entry): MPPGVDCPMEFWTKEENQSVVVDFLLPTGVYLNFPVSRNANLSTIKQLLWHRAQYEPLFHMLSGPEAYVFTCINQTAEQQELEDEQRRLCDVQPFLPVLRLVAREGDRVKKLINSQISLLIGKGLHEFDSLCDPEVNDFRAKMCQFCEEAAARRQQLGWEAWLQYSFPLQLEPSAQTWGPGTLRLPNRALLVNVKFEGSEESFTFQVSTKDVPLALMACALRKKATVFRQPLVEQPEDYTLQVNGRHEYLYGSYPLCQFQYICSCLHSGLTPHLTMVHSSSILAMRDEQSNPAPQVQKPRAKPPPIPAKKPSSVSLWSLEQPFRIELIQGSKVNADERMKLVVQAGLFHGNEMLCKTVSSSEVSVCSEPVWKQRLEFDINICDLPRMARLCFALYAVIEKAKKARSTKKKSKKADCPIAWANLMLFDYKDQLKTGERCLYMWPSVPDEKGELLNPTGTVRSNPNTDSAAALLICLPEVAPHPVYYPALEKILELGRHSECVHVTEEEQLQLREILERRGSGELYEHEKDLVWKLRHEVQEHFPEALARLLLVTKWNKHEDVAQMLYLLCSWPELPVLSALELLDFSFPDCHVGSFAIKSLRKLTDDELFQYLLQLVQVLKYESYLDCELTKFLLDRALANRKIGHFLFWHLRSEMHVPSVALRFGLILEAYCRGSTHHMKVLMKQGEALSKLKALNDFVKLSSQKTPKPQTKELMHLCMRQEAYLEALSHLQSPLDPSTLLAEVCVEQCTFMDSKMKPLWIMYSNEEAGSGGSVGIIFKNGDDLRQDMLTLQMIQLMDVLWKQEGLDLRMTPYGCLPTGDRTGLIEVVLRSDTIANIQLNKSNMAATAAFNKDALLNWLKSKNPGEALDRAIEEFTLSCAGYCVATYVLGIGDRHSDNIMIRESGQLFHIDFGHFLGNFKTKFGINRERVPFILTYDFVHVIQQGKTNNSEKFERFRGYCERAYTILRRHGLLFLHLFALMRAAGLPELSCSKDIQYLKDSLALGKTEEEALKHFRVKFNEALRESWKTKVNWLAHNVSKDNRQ
T2 sequence (P27986 whole entry partner): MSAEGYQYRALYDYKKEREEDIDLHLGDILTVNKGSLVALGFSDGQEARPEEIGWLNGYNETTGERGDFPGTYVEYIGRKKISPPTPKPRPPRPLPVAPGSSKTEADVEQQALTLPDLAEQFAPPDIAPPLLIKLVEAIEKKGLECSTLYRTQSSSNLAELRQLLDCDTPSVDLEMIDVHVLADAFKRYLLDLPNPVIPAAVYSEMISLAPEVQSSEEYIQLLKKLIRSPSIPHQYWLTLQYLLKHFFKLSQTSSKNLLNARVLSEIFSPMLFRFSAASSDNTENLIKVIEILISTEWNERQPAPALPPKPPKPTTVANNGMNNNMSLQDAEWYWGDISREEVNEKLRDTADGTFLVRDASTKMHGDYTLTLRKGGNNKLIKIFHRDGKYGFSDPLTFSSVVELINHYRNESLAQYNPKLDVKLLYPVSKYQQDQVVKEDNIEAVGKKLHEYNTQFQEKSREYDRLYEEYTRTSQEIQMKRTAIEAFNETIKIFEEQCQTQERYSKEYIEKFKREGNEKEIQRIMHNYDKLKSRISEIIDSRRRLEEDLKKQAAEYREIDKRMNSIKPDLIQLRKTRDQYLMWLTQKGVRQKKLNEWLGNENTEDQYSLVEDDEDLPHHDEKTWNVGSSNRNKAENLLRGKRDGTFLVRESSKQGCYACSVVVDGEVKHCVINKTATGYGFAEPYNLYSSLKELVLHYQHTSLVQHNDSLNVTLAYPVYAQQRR
T1 sequence (P48736 whole entry): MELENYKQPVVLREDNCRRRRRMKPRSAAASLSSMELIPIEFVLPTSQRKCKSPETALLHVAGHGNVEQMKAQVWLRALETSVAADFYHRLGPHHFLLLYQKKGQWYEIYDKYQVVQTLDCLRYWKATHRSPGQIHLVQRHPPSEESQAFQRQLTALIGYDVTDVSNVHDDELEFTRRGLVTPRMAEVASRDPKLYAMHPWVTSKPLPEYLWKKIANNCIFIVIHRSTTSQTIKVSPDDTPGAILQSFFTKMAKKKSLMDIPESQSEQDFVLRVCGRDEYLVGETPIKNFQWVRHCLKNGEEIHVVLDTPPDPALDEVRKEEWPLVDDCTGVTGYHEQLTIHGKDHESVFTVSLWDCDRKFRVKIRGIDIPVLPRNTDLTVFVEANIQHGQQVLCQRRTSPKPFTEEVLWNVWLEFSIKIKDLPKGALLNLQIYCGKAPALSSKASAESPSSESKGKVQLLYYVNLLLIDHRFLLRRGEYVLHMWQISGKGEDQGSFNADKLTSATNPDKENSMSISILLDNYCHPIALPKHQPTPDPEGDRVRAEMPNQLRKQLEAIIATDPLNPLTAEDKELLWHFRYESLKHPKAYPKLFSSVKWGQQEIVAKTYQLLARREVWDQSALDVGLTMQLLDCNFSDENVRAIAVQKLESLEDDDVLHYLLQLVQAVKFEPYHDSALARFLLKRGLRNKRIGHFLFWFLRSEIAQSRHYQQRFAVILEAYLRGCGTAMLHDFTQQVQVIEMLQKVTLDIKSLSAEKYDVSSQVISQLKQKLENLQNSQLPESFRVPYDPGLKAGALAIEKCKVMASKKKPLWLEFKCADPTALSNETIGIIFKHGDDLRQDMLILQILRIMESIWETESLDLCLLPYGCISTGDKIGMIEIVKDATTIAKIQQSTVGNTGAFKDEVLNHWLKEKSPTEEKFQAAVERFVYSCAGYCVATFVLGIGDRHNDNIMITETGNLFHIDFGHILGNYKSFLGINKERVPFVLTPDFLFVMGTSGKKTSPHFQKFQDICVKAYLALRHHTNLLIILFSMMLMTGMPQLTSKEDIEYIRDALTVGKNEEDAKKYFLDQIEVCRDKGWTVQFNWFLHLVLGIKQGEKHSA

With `O=C1NC(=O)/C(=C/c2ccc(-c3ccc(F)cc3O)o2)S1` [AS-252424, reference compound], the “effect on p-AKT signaling” value in assay [1] (αIgM + IL-4, 100 nM, 300 nM, 1 µM) is on record as “no significant effect”. In addition, the “effect on p-ERK1/2” value in assay [2] (αIgM + IL-4) is given as “no significant effect”. The effect on survival entry in the assay on mouse B cells (BAFF or IL-4, 48 h) is listed as “no significant effect”.
Take `CC(C)n1c([C@H](C)Nc2ncnc(N)c2C#N)cc2cccc(-c3ccc(=O)n(C)c3)c2c1=O` [IPI-3063]: the half-maximal inhibitory concentration (IC50) – broadly, the concentration that gives 50% inhibition – on p110γ is 2190 nM; on p110δ [3] it was 2.5 ± 1.2 nM; in the assay with p110α it was 1900 nM; with p110δ [4] (p110δ-specific cell-based assay, pAKT S473, read-out: Cellular IC50), 0.1 ± 0.01 nM. The “cellular IC50 values for the other class I PI3K isoforms relative to p110δ” value in the assay with p110δ [4] (other class I isoforms vs p110δ, cell-based) is “at least 1,000 fold”. In assay [1] (αIgM + IL-4, 30 min pretreatment, 1 h stimulation), the “concentration with significant reduction of p-AKT” value is on record as 1 nM. In addition, the “concentration with significant reduction of p-ERK1/2” value in assay [2] (αIgM + IL-4, 1 h stimulation) is listed as 10 nM. Further, the “concentration with significant decrease in B cell survival” value with mouse B cells (BAFF, 48 h) came to 10 nM.
